Reference: patent US7368578B2, “Five-membered heterocyclic compounds” (Takeda Pharmaceutical Company Limited, priority 2002, dated 2008)

Row | melting point | SMILES
1 | 138 to 139 °C | COc1cc(COc2nn(C)cc2C(=O)N(C)OC)ccc1OCc1nc(-c2ccccc2)oc1C [Example 269, N-methoxy-N-methyl-3-{[3-methoxy-4-(5-methyl-2-phenyl-1,3-oxazol-4-ylmethoxy)benzyl]oxy}-1-methyl-1H-pyrazole-4-carboxamide]
2 | 170 to 171 °C | COc1cc(COc2nn(C)cc2C(C)=O)ccc1OCc1nc(-c2ccccc2)oc1C [Example 270, 1-(3-{[3-methoxy-4-(5-methyl-2-phenyl-1,3-oxazol-4-ylmethoxy)benzyl]oxy}-1-methyl-1H-pyrazol-4-yl)ethanone]
3 | 94 to 95 °C | COc1cc(COc2nn(C)cc2C(C)O)ccc1OCc1nc(-c2ccccc2)oc1C (stereo not drawn) [Example 271, 1-(3-{[3-methoxy-4-(5-methyl-2-phenyl-1,3-oxazol-4-ylmethoxy)benzyl]oxy}-1-methyl-1H-pyrazol-4-yl)ethanol]
4 | 160 to 161 °C | CCOC(=O)c1cn(-c2ccccc2)nc1OCc1ccc(OCc2nc(-c3ccccc3)oc2C)c(OC)c1 [Example 272, ethyl 3-{[3-methoxy-4-(5-methyl-2-phenyl-1,3-oxazol-4-ylmethoxy)benzyl]oxy}-1-phenyl-1H-pyrazole-4-carboxylate]
5 | 209 to 210 °C | COc1cc(COc2nn(-c3ccccc3)cc2C(=O)O)ccc1OCc1nc(-c2ccccc2)oc1C [Example 273, 3-{[3-methoxy-4-(5-methyl-2-phenyl-1,3-oxazol-4-ylmethoxy)benzyl]oxy}-1-phenyl-1H-pyrazole-4-carboxylic acid]
6 | 142 to 143 °C | COc1cc(COc2nn(-c3ccccc3)cc2C=O)ccc1OCc1nc(-c2ccccc2)oc1C [Example 275, 3-{[3-methoxy-4-(5-methyl-2-phenyl-1,3-oxazol-4-ylmethoxy)benzyl]oxy}-1-phenyl-1H-pyrazole-4-carbaldehyde]
7 | 190 to 191 °C | COc1cc(COc2nn(-c3ccccc3)cc2C(N)=O)ccc1OCc1nc(-c2ccccc2)oc1C [Example 276, 3-{[3-methoxy-4-(5-methyl-2-phenyl-1,3-oxazol-4-ylmethoxy)benzyl]oxy}-1-phenyl-1H-pyrazole-4-carboxamide]
8 | 156 to 158 °C | COc1cc(CC(=O)Nc2nn(-c3ccccc3)cc2C=O)ccc1OCc1nc(-c2ccccc2)oc1C [Example 277, N-(4-formyl-1-phenyl-1H-pyrazol-3-yl)-2-{3-methoxy-4-[(5-methyl-2-phenyl-1,3-oxazol-4-yl)methoxy]phenyl}acetamide]
9 | 174 to 175 °C | COc1cc(COc2nn(-c3ccccc3)cc2C#N)ccc1OCc1nc(-c2ccccc2)oc1C [Example 278, 3-{[3-methoxy-4-(5-methyl-2-phenyl-1,3-oxazol-4-ylmethoxy)benzyl]oxy}-1-phenyl-1H-pyrazole-4-carbonitrile]
10 | 143 to 144 °C | COc1cc(COc2nc(-c3ccccc3)ncc2C=O)ccc1OCc1nc(-c2ccco2)oc1C [Example 280, 4-[(4-{[2-(2-furyl)-5-methyl-1,3-oxazol-4-yl]methoxy}-3-methoxybenzyl)oxy]-2-phenylpyrimidine-5-carbaldehyde]
11 | 188 to 189 °C | COc1cc(COc2nn(-c3ccccc3)cc2/C=C/C(=O)O)ccc1OCc1nc(-c2ccccc2)oc1C [Example 281, (E)-3-(3-{[3-methoxy-4-(5-methyl-2-phenyl-1,3-oxazol-4-ylmethoxy)benzyl]oxy}-1-phenyl-1H-pyrazol-4-yl)-2-propenoic acid]
12 | 137 to 138 °C | COc1cc(COc2nn(-c3ccccc3)cc2CC#N)ccc1OCc1nc(-c2ccccc2)oc1C [Example 283, (3-{[3-methoxy-4-(5-methyl-2-phenyl-1,3-oxazol-4-ylmethoxy)benzyl]oxy}-1-phenyl-1H-pyrazol-4-yl)acetonitrile]
13 | 212 to 213 °C | COc1cc(C(=O)Nc2nn(-c3ccccc3)cc2C=O)ccc1OCc1nc(-c2ccco2)oc1C [Example 290, N-(4-formyl-1-phenyl-1H-pyrazol-3-yl)-4-{[2-(2-furyl)-5-methyl-1,3-oxazol-4-yl]methoxy}-3-methoxybenzamide]
14 | 143 to 144 °C | COC(=O)c1cc(OCc2ccc(OCc3nc(-c4ccccc4)oc3C)c(OC)c2)nn1-c1ccccc1 [Example 291, methyl 3-{[3-methoxy-4-(5-methyl-2-phenyl-1,3-oxazol-4-ylmethoxy)benzyl]oxy}-1-phenyl-1H-pyrazole-5-carboxylate]
15 | 192 to 193 °C | COc1cc(COc2cc(C(=O)O)n(-c3ccccc3)n2)ccc1OCc1nc(-c2ccccc2)oc1C [Example 292, 3-{[3-methoxy-4-(5-methyl-2-phenyl-1,3-oxazol-4-ylmethoxy)benzyl]oxy}-1-phenyl-1H-pyrazole-5-carboxylic acid]
16 | 146 to 147 °C | COc1cc(COc2cc(CO)n(-c3ccccc3)n2)ccc1OCc1nc(-c2ccccc2)oc1C [Example 293, (3-{[3-methoxy-4-(5-methyl-2-phenyl-1,3-oxazol-4-ylmethoxy)benzyl]oxy}-1-phenyl-1H-pyrazol-5-yl)methanol]
17 | 119 to 120 °C | COc1cc(COc2cc(C=O)n(-c3ccccc3)n2)ccc1OCc1nc(-c2ccccc2)oc1C [Example 294, 3-{[3-methoxy-4-(5-methyl-2-phenyl-1,3-oxazol-4-ylmethoxy)benzyl]oxy}-1-phenyl-1H-pyrazole-5-carbaldehyde]
18 | 205 to 206 °C | CCOC(=O)/C=C/c1cn(-c2ccc(C(F)(F)F)cc2)nc1OCc1ccc(OCc2nc(-c3ccccc3)oc2C)c(OC)c1 [Example 295, ethyl (2E)-3-{3-({3-methoxy-4-[(5-methyl-2-phenyl-1,3-oxazol-4-yl)methoxy]benzyl}oxy)-1-[4-(trifluoromethyl)phenyl]-1H-pyrazol-4-yl}-2-propenoate]
19 | 118 to 119 °C | COc1cc(COc2nn(-c3ccc(C(F)(F)F)cc3)cc2/C=C/CO)ccc1OCc1nc(-c2ccccc2)oc1C [Example 296, (2E)-3-{3-({3-methoxy-4-[(5-methyl-2-phenyl-1,3-oxazol-4-yl)methoxy]benzyl}oxy)-1-[4-(trifluoromethyl)phenyl]-1H-pyrazol-4-yl}-2-propen-1-ol]
20 | 131 to 132 °C | COc1cc(COc2nn(-c3ccc(C(F)(F)F)cc3)cc2/C=C/C(=O)OCOC(=O)C(C)(C)C)ccc1OCc1nc(-c2ccccc2)oc1C [Example 297, [(2,2-dimethylpropanoyl)oxy]methyl (2E)-3-{3-({3-methoxy-4-[(5-methyl-2-phenyl-1,3-oxazol-4-yl)methoxy]benzyl}oxy)-1-[4-(trifluoromethyl)phenyl]-1H-pyrazol-4-yl}-2-propenoate]
21 | 120 to 121 °C | COc1cc(COc2cc(C#N)n(-c3ccccc3)n2)ccc1OCc1nc(-c2ccccc2)oc1C [Example 298, 3-{[3-methoxy-4-(5-methyl-2-phenyl-1,3-oxazol-4-ylmethoxy)benzyl]oxy}-1-phenyl-1H-pyrazole-5-carbonitrile]
22 | 121 to 122 °C | CCOC(=O)/C=C/c1cc(OCc2ccc(OCc3nc(-c4ccccc4)oc3C)c(OC)c2)nn1-c1ccccc1 [Example 299, ethyl (E)-3-(3-{[3-methoxy-4-(5-methyl-2-phenyl-1,3-oxazol-4-ylmethoxy)benzyl]oxy}-1-phenyl-1H-pyrazol5-yl)-2-propenoate]
23 | 194 to 195 °C | COc1cc(COc2cc(/C=C/C(=O)O)n(-c3ccccc3)n2)ccc1OCc1nc(-c2ccccc2)oc1C [Example 300, (E)-3-(3-{[3-methoxy-4-(5-methyl-2-phenyl-1,3-oxazol-4-ylmethoxy)benzyl]oxy}-1-phenyl-1H-pyrazol5-yl)-2-propenoic acid]
24 | 190 to 191 °C | COc1cc(CC(=O)Nc2nn(-c3ccccc3)cc2C=O)ccc1OCc1nc(-c2ccco2)oc1C [Example 303, N-(4-formyl-1-phenyl-1H-pyrazol-3-yl)-2-(4-{[2-(2-furyl)-5-methyl-1,3-oxazol-4-yl]methoxy}-3-methoxyphenyl)acetamide]
25 | 127 to 128 °C | Cc1oc(-c2ccccc2)nc1COc1ccc(OCc2oc(-c3ccccc3)nc2C=O)cc1 [Example 304, 5-({4-[(5-methyl-2-phenyl-1,3-oxazol-4-yl)methoxy]phenoxy}methyl)-2-phenyl-1,3-oxazole-4-carbaldehyde]
26 | 163 to 164 °C | COc1cc(COc2nc(-c3ccccc3)ncc2C(=O)O)ccc1OCc1nc(-c2ccco2)oc1C [Example 305, 4-[(4-{[2-(2-furyl)-5-methyl-1,3-oxazol-4-yl]methoxy}-3-methoxybenzyl)oxy]-2-phenylpyrimidine-5-carboxylic acid]
27 | 183 to 184 °C | COC(=O)c1cccc(-c2nc(COc3ccc(COc4nn(-c5ccccc5)cc4/C=C/c4nc(N5CCOCC5)sc4C)cc3OC)c(C)o2)c1 [Example 309, methyl 3-[4-({2-methoxy-4-[({4-[(E)-2-(5-methyl-2-morpholin-4-yl-1,3-thiazol-4-yl)ethenyl]-1-phenyl-1H-pyrazol-3-yl}oxy)methyl]phenoxy}methyl)-5-methyl-1,3-oxazol-2-yl]benzoate]
28 | 215 to 217 °C (dec.) | COc1cc(COc2nn(-c3ccccc3)cc2/C=C/c2nc(N3CCOCC3)sc2C)ccc1OCc1nc(-c2cccc(C(=O)O)c2)oc1C [Example 310, 3-[4-({2-methoxy-4-[({4-[(E)-2-(5-methyl-2-morpholin-4-yl-1,3-thiazol-4-yl)ethenyl]-1-phenyl-1H-pyrazol-3-yl}oxy)methyl]phenoxy)methyl)-5-methyl-1,3-oxazol-2-yl]benzoic acid]
29 | 150 to 151 °C | CCOC(=O)/C=C/c1nc(COc2ccc(COc3nn(-c4ccccc4)cc3C=O)cc2OC)c(C)o1 [Example 313, ethyl (2E)-3-{4-[(4-{[(4-formyl-1-phenyl-1H-pyrazol-3-yl)oxy]methyl}-2-methoxyphenoxy)methyl]-5-methyl-1,3-oxazol-2-yl}-2-propenoate]
30 | 195 to 196 °C | COC(=O)c1cc(-c2nc(COc3ccc(COc4nn(-c5ccccc5)cc4C=O)cc3OC)c(C)o2)ccc1C [Example 319, methyl 5-{4-[(4-{[(4-formyl-1-phenyl-1H-pyrazol-3-yl)oxy]methyl}-2-methoxyphenoxy)methyl]-5-methyl-1,3-oxazol-2-yl}-2-methylbenzoate]
